Laboratory results taken from ChEMBL document CHEMBL1201862, “PubChem BioAssay data set” (2004).
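How tested: cells in 96-well plates exposed to compound for 48 hours at five concentrations. The concentration for 50% growth inhibition is given as GI50.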 Active and inactive are the calls of the source. Cut-off read from the data, not from the text of the source: active = GI50 up to about 1.1 µM and inactive = higher.

Key:
Experiment in all cases: DTP human tumour cell line panel, 48 h
CAKI-1 = tested on: CAKI-1
COLO 205 = tested on: COLO 205
HCC 2998 = tested on: HCC 2998
HCT-15 = tested on: HCT-15
IGROV-1 = tested on: IGROV-1
MOLT-4 = tested on: MOLT-4
NCI-H226 = tested on: NCI-H226
NCI-H460 = tested on: NCI-H460
NCI-H522 = tested on: NCI-H522
OVCAR-8 = tested on: OVCAR-8
RPMI-8226 = tested on: RPMI-8226
SF-268 = tested on: SF-268
SF-295 = tested on: SF-295
SK-MEL-28 = tested on: SK-MEL-28
SK-MEL-5 = tested on: SK-MEL-5
SN12C = tested on: SN12C
UACC-62 = tested on: UACC-62
UO-31 = tested on: UO-31
EKVX = tested on: EKVX
HL-60 = tested on: HL-60

SMILES | GI50 (CAKI-1) | GI50 (COLO 205) | GI50 (HCC 2998) | GI50 (HCT-15) | GI50 (IGROV-1) | GI50 (MOLT-4) | GI50 (NCI-H226) | GI50 (NCI-H460) | GI50 (NCI-H522) | GI50 (OVCAR-8) | GI50 (RPMI-8226) | GI50 (SF-268) | GI50 (SF-295) | GI50 (SK-MEL-28) | GI50 (SK-MEL-5) | GI50 (SN12C) | GI50 (UACC-62) | GI50 (UO-31) | GI50 (EKVX) | GI50 (HL-60)
O=C1CCCN1C(=O)CS(=O)(=O)c1ccccc1 | > 100 µM (inactive) | > 100 µM (inactive) | > 100 µM (inactive) | > 100 µM | > 100 µM (inactive) | > 100 µM (inactive) | > 100 µM (inactive) | > 100 µM (inactive) | > 100 µM (inactive) | > 100 µM (inactive) | > 100 µM (inactive) | > 100 µM (inactive) | > 100 µM (inactive) | > 100 µM (inactive) | > 100 µM (inactive) | > 100 µM (inactive) | > 100 µM (inactive) | > 100 µM (inactive) | – | –
Nc1ccc(-c2ncc3cc(-c4cccc(-c5cc6cnc(-c7ccc(N)cc7)nc6c6ccccc56)c4)c4ccccc4c3n2)cc1 | > 100 µM (inactive) | 35.3 µM (inactive) | > 100 µM (inactive) | > 100 µM | > 100 µM (inactive) | > 100 µM (inactive) | > 100 µM (inactive) | > 100 µM (inactive) | > 100 µM (inactive) | > 100 µM (inactive) | > 100 µM (inactive) | > 100 µM (inactive) | > 100 µM (inactive) | > 100 µM (inactive) | 34.5 µM (inactive) | > 100 µM (inactive) | > 100 µM (inactive) | > 100 µM (inactive) | > 100 µM (inactive) | –
Nc1cccc(C#Cc2cccc(C#Cc3cccc(N)n3)n2)n1 | > 100 µM (inactive) | > 100 µM (inactive) | > 100 µM (inactive) | > 100 µM | 69.5 µM (inactive) | 32.8 µM (inactive) | > 100 µM (inactive) | 37.2 µM (inactive) | > 100 µM (inactive) | > 100 µM (inactive) | 91 µM (inactive) | > 100 µM (inactive) | 66.7 µM (inactive) | – | 47.4 µM (inactive) | 79.3 µM (inactive) | > 100 µM (inactive) | > 100 µM (inactive) | > 100 µM (inactive) | –
O=C1C(c2ccccc2)=[N+]([O-])c2cc([N+](=O)[O-])ccc21 | – | 21.5 µM (inactive) | 27.5 µM (inactive) | 21.4 µM | 22.4 µM (inactive) | 18.7 µM (inactive) | 73.3 µM (inactive) | 24.7 µM (inactive) | 15.3 µM (inactive) | 16.4 µM (inactive) | 22.8 µM (inactive) | 19.7 µM (inactive) | 48.2 µM (inactive) | 22.6 µM (inactive) | 19.3 µM (inactive) | 25.6 µM (inactive) | 13.1 µM (inactive) | 52.1 µM (inactive) | 17.4 µM (inactive) | 7.52 µM (inactive)
N/C(=N\N=C\c1cc2ccccc2s1)c1cnccn1 | > 100 µM (inactive) | > 100 µM (inactive) | – | > 100 µM | > 100 µM (inactive) | – | > 100 µM (inactive) | > 100 µM (inactive) | > 100 µM (inactive) | 78.2 µM (inactive) | > 100 µM (inactive) | > 100 µM (inactive) | 84.5 µM (inactive) | > 100 µM (inactive) | > 100 µM (inactive) | > 100 µM (inactive) | > 100 µM (inactive) | > 100 µM (inactive) | > 100 µM (inactive) | > 100 µM (inactive)
O=C(Nc1ccc(Cl)cc1Cl)c1c/c(=N\O)c2ccc(O)cc2o1 | > 100 µM (inactive) | > 100 µM (inactive) | – | > 100 µM | > 100 µM (inactive) | > 100 µM (inactive) | > 100 µM (inactive) | > 100 µM (inactive) | > 100 µM (inactive) | > 100 µM (inactive) | > 100 µM (inactive) | > 100 µM (inactive) | > 100 µM (inactive) | > 100 µM (inactive) | > 100 µM (inactive) | > 100 µM (inactive) | > 100 µM (inactive) | > 100 µM (inactive) | – | > 100 µM (inactive)
C=CCCC(OCOCCOC)c1cc(C)c(O[Si](C)(C)C(C)(C)C)c(C)c1 (configuration not stated) | – | 16.7 µM (inactive) | 14 µM (inactive) | 13.2 µM | 19.9 µM (inactive) | 4.4 µM (inactive) | 13.5 µM (inactive) | 13.9 µM (inactive) | 11.8 µM (inactive) | 19.3 µM (inactive) | 4.81 µM (inactive) | 15.2 µM (inactive) | 17.3 µM (inactive) | 19.5 µM (inactive) | 10.1 µM (inactive) | 15.6 µM (inactive) | 10.7 µM (inactive) | 11.7 µM (inactive) | 32.2 µM (inactive) | 3.28 µM (inactive)
Nc1nc(SCCC/C=C/B(O)O)nc2c1ncn2C1OC(CO)C(O)C1O (configuration not stated) | – | > 243 µM (inactive) | > 243 µM (inactive) | > 243 µM | > 243 µM (inactive) | > 243 µM (inactive) | > 243 µM (inactive) | > 243 µM (inactive) | > 243 µM (inactive) | > 243 µM (inactive) | – | > 243 µM (inactive) | > 243 µM (inactive) | > 243 µM (inactive) | > 243 µM (inactive) | > 243 µM (inactive) | > 243 µM (inactive) | – | > 243 µM (inactive) | > 243 µM (inactive)
O=C1c2ccccc2-c2ccc(O)cc21 | 14.8 µM (inactive) | 19.7 µM (inactive) | – | 21.6 µM | 18.6 µM (inactive) | 16.1 µM (inactive) | 26.3 µM (inactive) | 20.1 µM (inactive) | 16.1 µM (inactive) | 20.2 µM (inactive) | 39 µM (inactive) | 19.1 µM (inactive) | 22.9 µM (inactive) | 19.7 µM (inactive) | 19.4 µM (inactive) | 15.7 µM (inactive) | 15.3 µM (inactive) | 17.2 µM (inactive) | 16.4 µM (inactive) | 23.2 µM (inactive)
Cc1noc(/N=C2\C=C(O)C(=O)c3ccccc32)c1C | 5 µM (inactive) | 31.5 µM (inactive) | – | 11.6 µM | 10 µM (inactive) | 18.7 µM (inactive) | 23.8 µM (inactive) | 2.36 µM (inactive) | 0.274 µM (active) | 7.38 µM (inactive) | 9.64 µM (inactive) | 16.9 µM (inactive) | 11.1 µM (inactive) | 58.1 µM (inactive) | 0.676 µM (active) | 0.918 µM (active) | 2.14 µM (inactive) | 3.18 µM (inactive) | 37.8 µM (inactive) | 0.516 µM (active)
CCCN(CCCCC(NC(C)=O)C(=O)NCc1ccccc1)C(=O)NC (configuration not stated) | > 100 µM (inactive) | > 100 µM (inactive) | > 100 µM (inactive) | > 100 µM | > 100 µM (inactive) | > 100 µM (inactive) | > 100 µM (inactive) | > 100 µM (inactive) | > 100 µM (inactive) | > 100 µM (inactive) | > 100 µM (inactive) | > 100 µM (inactive) | > 100 µM (inactive) | > 100 µM (inactive) | > 100 µM (inactive) | > 100 µM (inactive) | > 100 µM (inactive) | > 100 µM (inactive) | > 100 µM (inactive) | –
CCOC(=O)[C@@]12CCC(C1=O)[C@](C)(O)C[C@@H]2c1ccccc1 | 39.2 µM (inactive) | 44.4 µM (inactive) | – | 25.8 µM | 35.4 µM (inactive) | 30.5 µM (inactive) | > 100 µM (inactive) | 39.2 µM (inactive) | 19 µM (inactive) | 54.8 µM (inactive) | – | 36.2 µM (inactive) | 32.7 µM (inactive) | 79.3 µM (inactive) | 35.2 µM (inactive) | 24.8 µM (inactive) | 29.7 µM (inactive) | > 100 µM (inactive) | 57.1 µM (inactive) | 24.3 µM (inactive)
COc1cc([N+](=O)[O-])ccc1NC(=O)C(F)(F)F | > 100 µM (inactive) | > 100 µM (inactive) | – | > 100 µM | > 100 µM (inactive) | > 100 µM (inactive) | > 100 µM (inactive) | > 100 µM (inactive) | 80.7 µM (inactive) | > 100 µM (inactive) | > 100 µM (inactive) | > 100 µM (inactive) | > 100 µM (inactive) | > 100 µM (inactive) | > 100 µM (inactive) | > 100 µM (inactive) | 43.1 µM (inactive) | 84.3 µM (inactive) | > 100 µM (inactive) | > 100 µM (inactive)
COc1cc([N+](=O)[O-])c(S(=O)(=O)O)cc1N | > 100 µM (inactive) | > 100 µM (inactive) | – | > 100 µM | > 100 µM (inactive) | > 100 µM (inactive) | > 100 µM (inactive) | > 100 µM (inactive) | > 100 µM (inactive) | > 100 µM (inactive) | > 100 µM (inactive) | > 100 µM (inactive) | – | > 100 µM (inactive) | > 100 µM (inactive) | > 100 µM (inactive) | > 100 µM (inactive) | > 100 µM (inactive) | > 100 µM (inactive) | > 100 µM (inactive)
CN(C)Cc1cc(/C(=C(\C#N)c2ccccc2)c2ccc(O)cc2)ccc1O | 20.9 µM (inactive) | 14.5 µM (inactive) | 15.5 µM (inactive) | 25.4 µM | 30.5 µM (inactive) | 15.3 µM (inactive) | 21.9 µM (inactive) | 19.6 µM (inactive) | 12.9 µM (inactive) | 19.1 µM (inactive) | 20.2 µM (inactive) | 20 µM (inactive) | 18.4 µM (inactive) | 13.6 µM (inactive) | 14.5 µM (inactive) | 18.3 µM (inactive) | 17.8 µM (inactive) | 20.4 µM (inactive) | 23.9 µM (inactive) | –
